According to patent US11807644B2 (PMV Pharmaceuticals, Inc., priority 2020, dated 2023):

biological target: T1, recombinant His-tag Y220C p53 DBD protein (Homo sapiens, UniProt P04637, Y220C); test: In vitro DNA binding activity assay (TR-FRET): binding of His-tag Y220C p53 DBD to biotin-labeled consensus DNA; type: biochemical; details: SC150 = concentration to increase DNA binding by […], His-tag Y220C p53 DBD, biotin-labeled consensus DNA
T1 construct: recombinant His-tag Y220C p53 DBD protein (amino acids #˜94-312)
Method: DNA binding activity of the compounds was measured using a TR-FRET (Time-Resolved Fluorescence Resonance Energy Transfer) assay in which recombinant His-tag Y220C p53 DBD protein binds to biotin-labeled consensus DNA. Binding of recombinant His-tag Y220C p53 DBD protein and biotin-labeled consensus DNA was registered by the FRET (fluorescence resonance energy transfer) between allophycocyanin (APC) conjugated anti-His tag antibody and Europium-(Eu) conjugated Streptavidin.
The compounds of TABLES 1-9 (2 mM stock in dimethylsulfoxide) were diluted 3-fold in series in dimethylsulfoxide. 1.2 μL of a compound solution was added to each well of 384-well polypropylene black plates (NUNC). Thirty μL per well of 181 nM recombinant His-tag Y220C p53 DBD protein (amino acids #˜94-312; SEQ ID NO: 1) and 6.1 nM of APC conjugated anti-His tag antibody (Columbia Biosciences) in ice-cold Assay Buffer 1 (50 mM Tris-HCl, pH 7.4, 75 mM KCl, 0.75 mM DTT and 0.2 mg/ml, BSA) were added. As a background control. 30 μL of Assay Buffer 1 containing 6.1 nM of APC anti-His antibody (No Y220C protein) was also added into a second set of serially diluted compound plates. The samples were spun by centrifuge at 1,200 rpm (Eppendorf 5810R Plate centrifuge) for 1 minute and incubated at room temperature (20° C.) for 15 min. The samples were then further incubated at either 27° C. or 29° C. for 60 min. […] The samples were spun by centrifuge at 1,200 rpm for 1 min and incubated at room temperature (20° C.) for 20 min. Assay signals were monitored by reading excitation at 340 nm, and emission fluorescence at 615 nm and 665 nm on an Envision® reader. Normalized TR-FRET (time-resolved fluorescence resonance energy transfer) assay signal (Rn) was calculated by the formula: Rn=[(A−Ba−C×(D−Bd))/(D−Bd)]×(D−Bd) Wherein: • A is the fluorescence intensity of the sample at 665 nm; • D is the fluorescence intensity of the sample at 615 nm; • Ba and Bd are plate backgrounds at 665 nm and 615 nm, respectively; and • Dc is the fluorescence intensity of 0.67 nM Eu-SA in the assay buffer at 615 nm.
The cross-talk factor (C) was determined by the following formula: C=(Ac−Ba)/(Dc−Bd) wherein Ac is the fluorescence intensity of 0.67 nM Europium (Eu) conjugated Streptavidin in the assay buffer at 665 nm.

Compound | Y220C SC150 (μM)
CN1CCC(Nc2cccc3c2cc(-c2nnc(CNC(=O)[C@H]4C[C@@H]4c4ccccc4)s2)n3CC(F)(F)F)CC1 (racemic) [Compound 53B, (+/−)-(1S,2S)-N-[(5-{4-[(1-methylpiperidin-4-yl)amino]-1-(2,2,2-trifluoroethyl)-1H-indol-2-yl}-1,3,4-thiadiazol-2-yl)methyl]-2-phenylcyclopropane-1-carboxamide] | * (* = 0 μM ≤ SC150 < 0.1 μM)
COC(=O)[C@@H]1C[C@H]1C(=O)NCc1nnc(-c2cc3c(NC4CCN(C)CC4)cccc3n2CC(F)(F)F)s1 (racemic) [Compound 75B, (+/−)-methyl (1R,2R)-2-{[(5-{4-[(1-methylpiperidin-4-yl)amino]-1-(2,2,2-trifluoroethyl)-1H-indol-2-yl}-1,3,4-thiadiazol-2-yl)methyl]carbamoyl}cyclopropane-1-carboxylate] | * (* = 0 μM ≤ SC150 < 0.1 μM)
CN1CCC(Nc2cccc3c2cc(-c2nnc(CNC(=O)[C@@H]4C[C@H]4C(=O)O)s2)n3CC(F)(F)F)CC1 (racemic) [Compound 76B, (+/−)-(1R,2R)-2-{[(5-{4-[(1-methylpiperidin-4-yl)amino]-1-(2,2,2-trifluoroethyl)-1H-indol-2-yl}-1,3,4-thiadiazol-2-yl)methyl]carbamoyl}cyclopropane-1-carboxylic acid] | * (* = 0 μM ≤ SC150 < 0.1 μM)
CN1CCC(Nc2cccc3c2cc(-c2nnc(CNC(=O)[C@@H]4C[C@@H]4C(=O)O)s2)n3CC(F)(F)F)CC1 (racemic) [Compound 81B, (+/−)-(1R,2S)-2-{[(5-{4-[(1-methylpiperidin-4-yl)amino]-1-(2,2,2-trifluoroethyl)-1H-indol-2-yl}-1,3,4-thiadiazol-2-yl)methyl]carbamoyl}cyclopropane-1-carboxylic acid] | ** (** = 0.1 μM ≤ SC150 < 0.5 μM)
CN1CC[C@@H](Nc2cccc3c2cc(-c2nc(CNC(=O)C4CC4)cs2)n3CC(F)(F)F)[C@@H](F)C1 (racemic) [Compound 89B, N-{[2-(4-{[(3S,4R)-3-fluoro-1-methylpiperidin-4-yl]amino}-1-(2,2,2-trifluoroethyl)-1H-indol-2-yl)-1,3-thiazol-4-yl]methyl}cyclopropanecarboxamide] | **** (**** = 1 μM ≤ SC150 < 10 μM)
CN1CC[C@@H](Nc2cccc3c2cc(-c2nc(CNC(=O)c4ccccc4)cs2)n3CC(F)(F)F)[C@@H](F)C1 (racemic) [Compound 90B, N-{[2-(4-{[(3S,4R)-3-fluoro-1-methylpiperidin-4-yl]amino}-1-(2,2,2-trifluoroethyl)-1H-indol-2-yl)-1,3-thiazol-4-yl]methyl}benzamide] | **** (**** = 1 μM ≤ SC150 < 10 μM)
CN1CC[C@@H](Nc2cccc3c2cc(-c2ncc(CNC(=O)c4ccccc4)s2)n3CC(F)(F)F)[C@@H](F)C1 (racemic) [Compound 91B, (+/−)-N-{[2-(4-{[(3R,4S)-3-fluoro-1-methylpiperidin-4-yl]amino}-1-(2,2,2-trifluoroethyl)-1H-indol-2-yl)-1,3-thiazol-5-yl]methyl}benzamide] | * (* = 0 μM ≤ SC150 < 0.1 μM)
CN1CC[C@@H](Nc2cccc3c2cc(-c2nccs2)n3CC(F)(F)F)[C@@H](F)C1 (racemic) [Compound 93B, (+/−)-N-[(3R,4S)-3-fluoro-1-methylpiperidin-4-yl]-2-(1,3-thiazol-2-yl)-1-(2,2,2-trifluoroethyl)-1H-indol-4-amine] | *** (*** = 0.5 μM ≤ SC150 < 1 μM)
CN1CC[C@@H](Nc2cccc3c2cc(-c2ncc(CNC(=O)C4CC4)s2)n3CC(F)(F)F)[C@@H](F)C1 (racemic) [Compound 95B, (+/−)-N-{[2-(4-{[(3R,4S)-3-fluoro-1-methylpiperidin-4-yl]amino}-1-(2,2,2-trifluoroethyl)-1H-indol-2-yl)-1,3-thiazol-5-yl]methyl}cyclopropanecarboxamide] | * (* = 0 μM ≤ SC150 < 0.1 μM)
CN1CC[C@@H](Nc2cccc3c2cc(-c2ncc(CN)s2)n3CC(F)(F)F)[C@@H](F)C1 (racemic) [Compound 96B, (+/−)-2-[5-(aminomethyl)-1,3-thiazol-2-yl]-N-[(3R,4S)-3-fluoro-1-methylpiperidin-4-yl]-1-(2,2,2-trifluoroethyl)-1H-indol-4-amine] | **** (**** = 1 μM ≤ SC150 < 10 μM)
CN1CC[C@@H](Nc2cccc3c2cc(-c2ncc(CNc4ccccc4)s2)n3CC(F)(F)F)[C@@H](F)C1 (racemic) [Compound 98B, (+/−)-N-[(3R,4S)-3-fluoro-1-methylpiperidin-4-yl]-2-{5-[(phenylamino)methyl]-1,3-thiazol-2-yl}-1-(2,2,2-trifluoroethyl)-1H-indol-4-amine] | * (* = 0 μM ≤ SC150 < 0.1 μM)
CN1CC[C@H](Nc2cccc3c2cc(-c2ccc(CNC(=O)c4ccccc4)s2)n3CC(F)(F)F)[C@H](F)C1 (racemic) [Compound 102B, (+/−)-N-{[5-(4-{[(3R,4S)-3-fluoro-1-methylpiperidin-4-yl]amino}-1-(2,2,2-trifluoroethyl)-1H-indol-2-yl)thiophen-2-yl]methyl}benzamide] | ** (** = 0.1 μM ≤ SC150 < 0.5 μM)

The remaining lines, values ahead:

Y220C SC150 (μM) | Compound
* (* = 0 μM ≤ SC150 < 0.1 μM) | COc1cc(S(C)(=O)=O)ccc1NCc1ccc(-c2cc3c(N[C@H]4CCN(C)C[C@H]4F)cccc3n2CC(F)(F)F)s1 (racemic) [Compound 101B, (+/−)-N-[(3R,4S)-3-fluoro-1-methylpiperidin-4-yl]-2-(5-{[(4-methanesulfonyl-2-methoxyphenyl)amino]methyl}thiophen-2-yl)-1-(2,2,2-trifluoroethyl)-1H-indol-4-amine]
* (* = 0 μM ≤ SC150 < 0.1 μM) | CN1CC[C@@H](Nc2cccc3c2cc(-c2ccc(CNC(=O)C4CC4)s2)n3CC(F)(F)F)[C@@H](F)C1 (racemic) [Compound 103B, (+/−)-N-{[5-(4-{[(3R,4S)-3-fluoro-1-methylpiperidin-4-yl]amino}-1-(2,2,2-trifluoroethyl)-1H-indol-2-yl)thiophen-2-yl]methyl}cyclopropanecarboxamide]
** (** = 0.1 μM ≤ SC150 < 0.5 μM) | COc1cc(S(C)(=O)=O)ccc1NCc1nnc(-c2cc3c(N[C@H]4CCN(C)C[C@H]4F)cccc3n2CC(F)(F)F)o1 (racemic) [Compound 114B, (+/−)-N-[(3R,4S)-3-fluoro-1-methylpiperidin-4-yl]-2-(5-{[(4-methanesulfonyl-2-methoxyphenyl)amino]methyl}-1,3,4-oxadiazol-2-yl)-1-(2,2,2-trifluoroethyl)-1H-indol-4-amine]
** (** = 0.1 μM ≤ SC150 < 0.5 μM) | COc1ccccc1C(=O)NCc1nnc(-c2cc3c(N[C@H]4CCN(C)C[C@H]4F)cccc3n2CC(F)(F)F)o1 (racemic) [Compound 115B, (+/−)-N-{[5-(4-{[(3R,4S)-3-fluoro-1-methylpiperidin-4-yl]amino}-1-(2,2,2-trifluoroethyl)-1H-indol-2-yl)-1,3,4-oxadiazol-2-yl]methyl}-2-methoxybenzamide]
*** (*** = 0.5 μM ≤ SC150 < 1 μM) | CN1CC[C@H](Nc2cccc3c2cc(-c2nnc(CN)o2)n3CC(F)(F)F)[C@H](F)C1 (racemic) [Compound 116B, (+/−)-2-[5-(aminomethyl)-1,3,4-oxadiazol-2-yl]-N-[(3R,4S)-3-fluoro-1-methylpiperidin-4-yl]-1-(2,2,2-trifluoroethyl)-1H-indol-4-amine]
** (** = 0.1 μM ≤ SC150 < 0.5 μM) | COc1ccc(C(=O)NCc2nnc(-c3cc4c(N[C@H]5CCN(C)C[C@H]5F)cccc4n3CC(F)(F)F)o2)cc1 (racemic) [Compound 117B, (+/−)-N-{[5-(4-{[(3R,4S)-3-fluoro-1-methylpiperidin-4-yl]amino}-1-(2,2,2-trifluoroethyl)-1H-indol-2-yl)-1,3,4-oxadiazol-2-yl]methyl}-4-methoxybenzamide]

same assay, conditions: concentration to increase DNA binding by […], incubated at either 27° C. or 29° C. for 60 min

SC150 (μM) | Compound
+ (+ = 0 μM ≤ SC150 < 2 μM) | CN1CC[C@H](Nc2cccc3c2cc(-c2ccc(CNC(=O)C4CC4)cc2)n3CC(F)(F)F)[C@H](F)C1 (racemic) [Compound 46A, (+/−)-N-{[4-(4-{[(3R,4S)-3-fluoro-1-methylpiperidin-4-yl]amino}-1-(2,2,2-trifluoroethyl)-1H-indol-2-yl)phenyl]methyl}cyclopropanecarboxamide]
